{
  "source": "patent US20100197614A1",
  "about": "“TREATMENT OF URINARY TRACT INFECTIONS WITH A MIXTURE OF SAPONIN AND AN ANTIBIOTIC” (priority 2007, published 2010)",
  "key": {"[1]": {"tested_on": "E Coli taken up by human urinary bladder cells (HTB-9)", "assay": "Infection of human bladder cells (HTB-9) with E Coli; surviving intracellular bacteria counted as CFU after gentamicin exposure", "format": "cell-based, Escherichia coli", "details": "HTB-9 infected 1 or 2 hours, then 100.0 μg/ml gentamicin for 2 hours", "method": "Human bladder cells were cultured and thereafter infected with bacteria. In brief, human urinary bladder cells (HTB-9 from American tissue culture collection) were cultured in culture medium and CO2 incubator at 37° C. until the actual experiment took place. Culturing of human cells is familiar for any skilled person in this field of biology. Next, different concentrations of E Coli were added to the human bladder cells. The bladder cells and the bacteria were allowed to incubate for 1 or 2 hours together before most of the loosely bound and extracellular E Coli cells were removed by washing the bladder cells with PBS (the human bladder cells are attached to the bottom of the cell culture flask). The human bladder cells were exposed to 100.0 μg/ml gentamicin for 2 hours. Gentamicin cannot pass any membrane under normal conditions. As already shown in example 1, this gentamicin treatment kills all bacteria if the gentamicin can get access to the bacteria. Residual gentamicin and dead bacteria were removed again by washing the bladder cells with PBS. A final concentration of 0.1% triton x-100 in phosphate buffered saline was added to destroy all membrane structures of the human cells. […] The degree of expression of bacterial type 1 pili was correlated with the degree of bladder infection as measured by the method explained in example 2. […]"}, "[2]": {"tested_on": "wild-type E Coli bacteria isolated from UTI patients", "assay": "Growth (absorption at 600 nm) and CFU survival of E Coli directly exposed to gentamicin in LB", "format": "cell-based, Escherichia coli", "method": "Furthermore, a sample of each bacteria solution at each different gentamicin concentration was transferred to an agar plate in order to test if the bacteria could give any surviving colony forming units (CFU) on an agar plate. The agar plate incubated overnight at 37° C.\nFIG. 3, lower panel, no E Coli bacteria could survive being exposed for 2 hours to concentrations of gentamicin higher than approximately 3.1 μg/ml.\nSeven different wild-type E Coli bacteria were isolated from UTI patients and were cultured in Luria Broth (LB) medium under static conditions for 2 days. The method for culturing bacteria is familiar for any skilled person in this field of microbiology. The 2 days old bacteria were diluted 100 fold in fresh sterile LB and added different concentrations of gentamicin or no gentamicin (control). Gentamicin was used as representative antibiotic agent. The bacteria were then allowed to re-grow for 2 hours under optimal growth conditions (shaking and at 37° C.) before the actual concentrations of bacteria cell in the LB were measured by determination of the absorption at 600 nm. The absorption of light reflects the number of bacteria. The number of bacteria was expressed relatively to the control preparation without gentamicin. […] Furthermore, a sample of each bacteria solution at each different gentamicin concentration was transferred to an agar plate in order to test if the bacteria survived and could cause formation of colony forming units (CFU) on an agar plate. The agar plate incubated overnight at 37° C."}},
  "data": [
    {"substance": "gentamicin", "values": [
      {"measurement": "survival of bacteria taken up by bladder cells after antibiotic treatment (CFU)", "setting": "[1]", "result": "able to survive the antibiotic treatment"},
      {"measurement": "survival of test bacteria on direct exposure", "setting": "[2]; 100.0 μg/ml gentamicin, 2 hours", "result": "could not survive"},
      {"measurement": "number of bacteria relative to control without gentamicin (absorption at 600 nm)", "setting": "[2]; 2 hours re-growth with different concentrations of gentamicin", "result": "reduced at very low concentrations of gentamicin"},
      {"measurement": "gentamicin concentration above which no E Coli bacteria could survive (CFU on agar plate)", "setting": "[2]; exposed for 2 hours, LB, 37° C., agar plate overnight", "result": "approximately 3.1 μg/ml"}
    ]}
  ]
}
